According to patent US11813340B2, “PSMA targeted radiohalogenated urea-polyaminocarboxylates for cancer radiotherapy” (The Johns Hopkins University, priority 2018, dated 2023):
Where two headings read alike, the source gives them in different places.

Tested on: PSMA+PC3-PIP and PSMA-PC3-flu flank xenografts
Description: Final compounds were purified by HPLC. […] Organs were harvested 1, 4, and 24 h post-injection (n=5 per time point).

[1] = 1-hour, Blocker VK-02-90 0.5 nmole
[2] = 1-hour, Blocker VK-02-90 1.0 nmole
[3] = 1-hour, Blocker VK-02-90 5.0 nmole
[4] = 1-hour, Blocker YC-I-27 0.5 nmole
[5] = 1-hour, Blocker YC-I-27 1.0 nmole
[6] = 1-hour, Blocker YC-I-27 5 nmole
[7] = 4-hr, Blocker VK-02-90 0.5 nmole
[8] = 4-hr, Blocker VK-02-90 1.0 nmole
[9] = 4-hr, Blocker VK-02-90 5.0 nmole
[10] = 4-hr, Blocker YC-I-27 0.5 nmole
[11] = 4-hr, Blocker YC-I-27 1.0 nmole
[12] = 24-hour, Blocker VK-02-90 0.5 nmole
[13] = 24-hour, Blocker VK-02-90 1.0 nmole
[14] = 24-hour, Blocker VK-02-90 5.0 nmole
[15] = 24-hour, Blocker YC-I-27 0.5 nmole
[16] = 24-hour, Blocker YC-I-27 1.0 nmole
[17] = 24-hour, Blocker YC-I-27 5 nmole

Compound: O=C([O-])CN1CCN(CC(=O)[O-])CCN(CC(=O)NCCCCC(=O)N(CCCC[C@H](NC(=O)N[C@@H](CCC(=O)O)C(=O)O)C(=O)O)Cc2ccc([125I])cc2)CCN(CC(=O)[O-])CC1.[Lu+3] [[^125I]VK-02-90-Lu]
- Biodistribution, Blood (1-hour, Blocker None): 1.1 ± 0.1 % injected dose/g
- Biodistribution, Flu tumor (1-hour, Blocker None): 1.0 ± 0.2 % injected dose/g
- Biodistribution, Kidneys (1-hour, Blocker None): 129 ± 15 % injected dose/g
- Biodistribution, Lacrimal glands (1-hour, Blocker None): 2.1 ± 0.9 % injected dose/g
- Biodistribution, PIP tumor (1-hour, Blocker None): 26.0 ± 3.0 % injected dose/g
- Biodistribution, Salivary glands (1-hour, Blocker None): 2.3 ± 0.5 % injected dose/g
- Biodistribution, Spleen (1-hour, Blocker None): 4.3 ± 0.9 % injected dose/g
- Biodistribution, Stomach (1-hour, Blocker None): 1.7 ± 0.3 % injected dose/g
- Biodistribution, Blood [1]: 0.4 ± 0.1 % injected dose/g
- Biodistribution, Flu tumor [1]: 0.6 ± 0.3 % injected dose/g
- Biodistribution, Kidneys [1]: 9.9 ± 2.5 % injected dose/g
- Biodistribution, Lacrimal glands [1]: 0.4 ± 0.1 % injected dose/g
- Biodistribution, PIP tumor [1]: 36.7 ± 6.8 % injected dose/g
- Biodistribution, Salivary glands [1]: 0.2 ± 0.03 % injected dose/g
- Biodistribution, Spleen [1]: 1.1 ± 0.4 % injected dose/g
- Biodistribution, Stomach [1]: 0.2 ± 0.1 % injected dose/g
- Biodistribution, Blood [2]: 0.4 ± 0.1 % injected dose/g
- Biodistribution, Flu tumor [2]: 0.5 ± 0.1 % injected dose/g
- Biodistribution, Kidneys [2]: 6.5 ± 0.9 % injected dose/g
- Biodistribution, Lacrimal glands [2]: 0.4 ± 0.1 % injected dose/g
- Biodistribution, PIP tumor [2]: 35.1 ± 9.0 % injected dose/g
- Biodistribution, Salivary glands [2]: 0.2 ± 0.06 % injected dose/g
- Biodistribution, Spleen [2]: 1.1 ± 0.4 % injected dose/g
- Biodistribution, Stomach [2]: 0.2 ± 0.04 % injected dose/g
- Biodistribution, Blood [3]: 0.5 ± 0.1 % injected dose/g
- Biodistribution, Flu tumor [3]: 0.9 ± 0.3 % injected dose/g
- Biodistribution, Kidneys [3]: 4.2 ± 0.5 % injected dose/g
- Biodistribution, Lacrimal glands [3]: 0.4 ± 0.03 % injected dose/g
- Biodistribution, PIP tumor [3]: 23.5 ± 4.3 % injected dose/g
- Biodistribution, Salivary glands [3]: 0.3 ± 0.1 % injected dose/g
- Biodistribution, Spleen [3]: 0.7 ± 0.2 % injected dose/g
- Biodistribution, Stomach [3]: 0.2 ± 0.06 % injected dose/g
- Biodistribution, Blood [4]: 1.1 ± 0.1 % injected dose/g
- Biodistribution, Flu tumor [4]: 1.0 ± 0.3 % injected dose/g
- Biodistribution, Kidneys [4]: 4.2 ± 1.3 % injected dose/g
- Biodistribution, Lacrimal glands [4]: 0.5 ± 0.1 % injected dose/g
- Biodistribution, PIP tumor [4]: 41.8 ± 4.2 % injected dose/g
- Biodistribution, Salivary glands [4]: 3.2 ± 0.7 % injected dose/g
- Biodistribution, Spleen [4]: 0.8 ± 0.2 % injected dose/g
- Biodistribution, Stomach [4]: 1.8 ± 0.2 % injected dose/g
- Biodistribution, Blood [5]: 1.0 ± 0.1 % injected dose/g
- Biodistribution, Flu tumor [5]: 0.8 ± 0.2 % injected dose/g
- Biodistribution, Kidneys [5]: 2.4 ± 0.8 % injected dose/g
- Biodistribution, Lacrimal glands [5]: 0.6 ± 0.05 % injected dose/g
- Biodistribution, PIP tumor [5]: 29.1 ± 2.4 % injected dose/g
- Biodistribution, Salivary glands [5]: 2.9 ± 0.4 % injected dose/g
- Biodistribution, Spleen [5]: 0.6 ± 0.1 % injected dose/g
- Biodistribution, Stomach [5]: 1.8 ± 0.3 % injected dose/g
- Biodistribution, Blood [6]: 1.1 ± 0.2 % injected dose/g
- Biodistribution, Flu tumor [6]: 0.8 ± 0.2 % injected dose/g
- Biodistribution, Kidneys [6]: 2.3 ± 0.7 % injected dose/g
- Biodistribution, Lacrimal glands [6]: 1.1 ± 0.6 % injected dose/g
- Biodistribution, PIP tumor [6]: 20.1 ± 2.8 % injected dose/g
- Biodistribution, Salivary glands [6]: 5.1 ± 1.7 % injected dose/g
- Biodistribution, Spleen [6]: 0.7 ± 0.1 % injected dose/g
- Biodistribution, Stomach [6]: 2.2 ± 0.7 % injected dose/g
- Biodistribution, Blood (4-hr, Blocker None): 0.3 ± 0.2 % injected dose/g
- Biodistribution, Flu tumor (4-hr, Blocker None): 0.25 ± 0.1 % injected dose/g
- Biodistribution, Kidneys (4-hr, Blocker None): 9.5 ± 2.5 % injected dose/g
- Biodistribution, Lacrimal glands (4-hr, Blocker None): 0.4 ± 0.2 % injected dose/g
- Biodistribution, PIP tumor (4-hr, Blocker None): 27.4 ± 7.5 % injected dose/g
- Biodistribution, Salivary glands (4-hr, Blocker None): 1.8 ± 0.2 % injected dose/g
- Biodistribution, Spleen (4-hr, Blocker None): 0.6 ± 0.2 % injected dose/g
- Biodistribution, Stomach (4-hr, Blocker None): 0.8 ± 0.5 % injected dose/g
- Biodistribution, Blood [7]: 0.02 ± 0.01 % injected dose/g
- Biodistribution, Flu tumor [7]: 0.1 ± 0.02 % injected dose/g
- Biodistribution, Kidneys [7]: 2.1 ± 0.7 % injected dose/g
- Biodistribution, Lacrimal glands [7]: 0.1 ± 0.03 % injected dose/g
- Biodistribution, PIP tumor [7]: 24.8 ± 2.0 % injected dose/g
- Biodistribution, Salivary glands [7]: 0.08 ± 0.04 % injected dose/g
- Biodistribution, Spleen [7]: 0.2 ± 0.1 % injected dose/g
- Biodistribution, Stomach [7]: 0.06 ± 0.01 % injected dose/g
- Biodistribution, Blood [8]: 0.2 ± 0.01 % injected dose/g
- Biodistribution, Flu tumor [8]: 0.1 ± 0.03 % injected dose/g
- Biodistribution, Kidneys [8]: 1.4 ± 0.4 % injected dose/g
- Biodistribution, Lacrimal glands [8]: 0.1 ± 0.05 % injected dose/g
- Biodistribution, PIP tumor [8]: 27.1 ± 3.6 % injected dose/g
- Biodistribution, Salivary glands [8]: 0.1 ± 0.02 % injected dose/g
- Biodistribution, Spleen [8]: 0.2 ± 0.1 % injected dose/g
- Biodistribution, Stomach [8]: 0.1 ± 0.03 % injected dose/g
- Biodistribution, Blood [9]: 0 % injected dose/g
- Biodistribution, Flu tumor [9]: 0.1 ± 0.01 % injected dose/g
- Biodistribution, Kidneys [9]: 0.9 ± 0.3 % injected dose/g
- Biodistribution, Lacrimal glands [9]: 0.1 ± 0.1 % injected dose/g
- Biodistribution, PIP tumor [9]: 18.8 ± 2.0 % injected dose/g
- Biodistribution, Salivary glands [9]: 0.05 ± 0.02 % injected dose/g
- Biodistribution, Spleen [9]: 0.15 ± 0.08 % injected dose/g
- Biodistribution, Stomach [9]: 0.1 ± 0.04 % injected dose/g
- Biodistribution, Blood [10]: 0.4 ± 0.06 % injected dose/g
- Biodistribution, Flu tumor [10]: 0.3 ± 0.1 % injected dose/g
- Biodistribution, Kidneys [10]: 0.9 ± 0.1 % injected dose/g
- Biodistribution, Lacrimal glands [10]: 0.2 ± 0.02 % injected dose/g
- Biodistribution, PIP tumor [10]: 24.0 ± 3.2 % injected dose/g
- Biodistribution, Salivary glands [10]: 3.3 ± 0.8 % injected dose/g
- Biodistribution, Spleen [10]: 0.25 ± 0.07 % injected dose/g
- Biodistribution, Stomach [10]: 1.3 ± 0.2 % injected dose/g
- Biodistribution, Blood [11]: 0.4 ± 0.05 % injected dose/g
- Biodistribution, Flu tumor [11]: 0.3 ± 0.1 % injected dose/g
- Biodistribution, Kidneys [11]: 0.6 ± 0.03 % injected dose/g
- Biodistribution, Lacrimal glands [11]: 0.2 ± 0.03 % injected dose/g
- Biodistribution, PIP tumor [11]: 23.8 ± 1.1 % injected dose/g
- Biodistribution, Salivary glands [11]: 3.2 ± 0.7 % injected dose/g
- Biodistribution, Spleen [11]: 0.2 ± 0.04 % injected dose/g
- Biodistribution, Stomach [11]: 1.2 ± 0.2 % injected dose/g
- Biodistribution, Blood (4-hr, Blocker YC-I-27 5 nmole): 0.4 ± 0.1 % injected dose/g
- Biodistribution, Flu tumor (4-hr, Blocker YC-I-27 5 nmole): 0.3 ± 0.1 % injected dose/g
- Biodistribution, Kidneys (4-hr, Blocker YC-I-27 5 nmole): 0.7 ± 0.1 % injected dose/g
- Biodistribution, Lacrimal glands (4-hr, Blocker YC-I-27 5 nmole): 0.5 ± 0.5 % injected dose/g
- Biodistribution, Salivary glands (4-hr, Blocker YC-I-27 5 nmole): 5.0 ± 1.4 % injected dose/g
- Biodistribution, Spleen (4-hr, Blocker YC-I-27 5 nmole): 0.3 ± 0.06 % injected dose/g
- Biodistribution, Stomach (4-hr, Blocker YC-I-27 5 nmole): 1.6 ± 0.4 % injected dose/g
- Biodistribution, Blood (24-hour, Blocker None): 0 % injected dose/g
- Biodistribution, Flu tumor (24-hour, Blocker None): 0.05 ± 0.01 % injected dose/g
- Biodistribution, Kidneys (24-hour, Blocker None): 1.3 ± 0.7 % injected dose/g
- Biodistribution, Lacrimal glands (24-hour, Blocker None): 0.05 ± 0.04 % injected dose/g
- Biodistribution, PIP tumor (24-hour, Blocker None): 18.0 ± 6.0 % injected dose/g
- Biodistribution, Salivary glands (24-hour, Blocker None): 0.2 ± 0.08 % injected dose/g
- Biodistribution, Spleen (24-hour, Blocker None): 0.1 ± 0.05 % injected dose/g
- Biodistribution, Stomach (24-hour, Blocker None): 0.1 ± 0.04 % injected dose/g
- Biodistribution, Blood [12]: 0.1 ± 0.01 % injected dose/g
- Biodistribution, Flu tumor [12]: 0.04 ± 0.01 % injected dose/g
- Biodistribution, Kidneys [12]: 0.5 ± 0.2 % injected dose/g
- Biodistribution, Lacrimal glands [12]: 0.03 ± 0.02 % injected dose/g
- Biodistribution, PIP tumor [12]: 16.3 ± 4.2 % injected dose/g
- Biodistribution, Salivary glands [12]: 0.02 ± 0.01 % injected dose/g
- Biodistribution, Spleen [12]: 0.04 ± 0.01 % injected dose/g
- Biodistribution, Stomach [12]: 0.04 ± 0.04 % injected dose/g
- Biodistribution, Blood [13]: 0 % injected dose/g
- Biodistribution, Flu tumor [13]: 0.03 ± 0.01 % injected dose/g
- Biodistribution, Kidneys [13]: 0.4 ± 0.1 % injected dose/g
- Biodistribution, Lacrimal glands [13]: 0 % injected dose/g
- Biodistribution, Salivary glands [13]: 0 % injected dose/g
- Biodistribution, Spleen [13]: 0 % injected dose/g
- Biodistribution, Stomach [13]: 0.03 ± 0.02 % injected dose/g
- Biodistribution, Blood [14]: 0 % injected dose/g
- Biodistribution, Flu tumor [14]: 0.02 ± 0.01 % injected dose/g
- Biodistribution, Kidneys [14]: 0.2 ± 0.2 % injected dose/g
- Biodistribution, Lacrimal glands [14]: 0.01 ± 0.03 % injected dose/g
- Biodistribution, Salivary glands [14]: 0.01 ± 0.01 % injected dose/g
- Biodistribution, Spleen [14]: 0.01 ± 0.03 % injected dose/g
- Biodistribution, Stomach [14]: 0.04 ± 0.03 % injected dose/g
- Biodistribution, Blood [15]: 0.03 ± 0.03 % injected dose/g
- Biodistribution, Flu tumor [15]: 0.04 ± 0.02 % injected dose/g
- Biodistribution, Kidneys [15]: 0.1 ± 0.05 % injected dose/g
- Biodistribution, Lacrimal glands [15]: 0.03 ± 0.04 % injected dose/g
- Biodistribution, PIP tumor [15]: 13.4 ± 3.8 % injected dose/g
- Biodistribution, Salivary glands [15]: 0.6 ± 0.5 % injected dose/g
- Biodistribution, Spleen [15]: 0.02 ± 0.02 % injected dose/g
- Biodistribution, Stomach [15]: 0.1 ± 0.1 % injected dose/g
- Biodistribution, Blood [16]: 0.02 ± 0.01 % injected dose/g
- Biodistribution, Flu tumor [16]: 0.03 ± 0.01 % injected dose/g
- Biodistribution, Lacrimal glands [16]: 0.02 ± 0.02 % injected dose/g
- Biodistribution, Salivary glands [16]: 0.4 ± 0.2 % injected dose/g
- Biodistribution, Spleen [16]: 0.04 ± 0.02 % injected dose/g
- Biodistribution, Stomach [16]: 0.08 ± 0.03 % injected dose/g
- Biodistribution, Blood [17]: 0.02 ± 0.01 % injected dose/g
- Biodistribution, Flu tumor [17]: 0.03 ± 0.01 % injected dose/g
- Biodistribution, Kidneys [17]: 0.05 ± 0.02 % injected dose/g
- Biodistribution, Lacrimal glands [17]: 0.01 ± 0.02 % injected dose/g
- Biodistribution, PIP tumor [17]: 6.6 ± 3.2 % injected dose/g
- Biodistribution, Salivary glands [17]: 0.4 ± 0.1 % injected dose/g
- Biodistribution, Spleen [17]: 0.01 ± 0.03 % injected dose/g
- Biodistribution, Stomach [17]: 0.07 ± 0.1 % injected dose/g
